Experimental data taken from patent publication US20230073777A1, “CYCLIC-AMP RESPONSE ELEMENT BINDING PROTEIN (CBP) AND/OR ADENOVIRAL E1A BINDING PROTEIN OF 300 KDA (P300) DEGRADATION COMPOUNDS AND METHODS OF USE” (CULLGEN (SHANGHAI), INC., priority 2019, published 2023).
Where two headings read alike, the source gives them in different places.

How the values were obtained:
P300 = P300 (Homo sapiens, UniProt Q09472); experiment: Immunoblotting of P300 protein levels in LNCaP or 22RV1 cells; type: cell-based; set-up: LNCaP or 22RV1 cells that express CBP/P300 proteins were treated with GNE-781 or the bivalent compounds; endogenous in cells; host or cells: LNCaP (clone FGC) or 22RV1 cells; conditions: read-out: Degradation (10 nM)
P300, sequence (Q09472 whole entry): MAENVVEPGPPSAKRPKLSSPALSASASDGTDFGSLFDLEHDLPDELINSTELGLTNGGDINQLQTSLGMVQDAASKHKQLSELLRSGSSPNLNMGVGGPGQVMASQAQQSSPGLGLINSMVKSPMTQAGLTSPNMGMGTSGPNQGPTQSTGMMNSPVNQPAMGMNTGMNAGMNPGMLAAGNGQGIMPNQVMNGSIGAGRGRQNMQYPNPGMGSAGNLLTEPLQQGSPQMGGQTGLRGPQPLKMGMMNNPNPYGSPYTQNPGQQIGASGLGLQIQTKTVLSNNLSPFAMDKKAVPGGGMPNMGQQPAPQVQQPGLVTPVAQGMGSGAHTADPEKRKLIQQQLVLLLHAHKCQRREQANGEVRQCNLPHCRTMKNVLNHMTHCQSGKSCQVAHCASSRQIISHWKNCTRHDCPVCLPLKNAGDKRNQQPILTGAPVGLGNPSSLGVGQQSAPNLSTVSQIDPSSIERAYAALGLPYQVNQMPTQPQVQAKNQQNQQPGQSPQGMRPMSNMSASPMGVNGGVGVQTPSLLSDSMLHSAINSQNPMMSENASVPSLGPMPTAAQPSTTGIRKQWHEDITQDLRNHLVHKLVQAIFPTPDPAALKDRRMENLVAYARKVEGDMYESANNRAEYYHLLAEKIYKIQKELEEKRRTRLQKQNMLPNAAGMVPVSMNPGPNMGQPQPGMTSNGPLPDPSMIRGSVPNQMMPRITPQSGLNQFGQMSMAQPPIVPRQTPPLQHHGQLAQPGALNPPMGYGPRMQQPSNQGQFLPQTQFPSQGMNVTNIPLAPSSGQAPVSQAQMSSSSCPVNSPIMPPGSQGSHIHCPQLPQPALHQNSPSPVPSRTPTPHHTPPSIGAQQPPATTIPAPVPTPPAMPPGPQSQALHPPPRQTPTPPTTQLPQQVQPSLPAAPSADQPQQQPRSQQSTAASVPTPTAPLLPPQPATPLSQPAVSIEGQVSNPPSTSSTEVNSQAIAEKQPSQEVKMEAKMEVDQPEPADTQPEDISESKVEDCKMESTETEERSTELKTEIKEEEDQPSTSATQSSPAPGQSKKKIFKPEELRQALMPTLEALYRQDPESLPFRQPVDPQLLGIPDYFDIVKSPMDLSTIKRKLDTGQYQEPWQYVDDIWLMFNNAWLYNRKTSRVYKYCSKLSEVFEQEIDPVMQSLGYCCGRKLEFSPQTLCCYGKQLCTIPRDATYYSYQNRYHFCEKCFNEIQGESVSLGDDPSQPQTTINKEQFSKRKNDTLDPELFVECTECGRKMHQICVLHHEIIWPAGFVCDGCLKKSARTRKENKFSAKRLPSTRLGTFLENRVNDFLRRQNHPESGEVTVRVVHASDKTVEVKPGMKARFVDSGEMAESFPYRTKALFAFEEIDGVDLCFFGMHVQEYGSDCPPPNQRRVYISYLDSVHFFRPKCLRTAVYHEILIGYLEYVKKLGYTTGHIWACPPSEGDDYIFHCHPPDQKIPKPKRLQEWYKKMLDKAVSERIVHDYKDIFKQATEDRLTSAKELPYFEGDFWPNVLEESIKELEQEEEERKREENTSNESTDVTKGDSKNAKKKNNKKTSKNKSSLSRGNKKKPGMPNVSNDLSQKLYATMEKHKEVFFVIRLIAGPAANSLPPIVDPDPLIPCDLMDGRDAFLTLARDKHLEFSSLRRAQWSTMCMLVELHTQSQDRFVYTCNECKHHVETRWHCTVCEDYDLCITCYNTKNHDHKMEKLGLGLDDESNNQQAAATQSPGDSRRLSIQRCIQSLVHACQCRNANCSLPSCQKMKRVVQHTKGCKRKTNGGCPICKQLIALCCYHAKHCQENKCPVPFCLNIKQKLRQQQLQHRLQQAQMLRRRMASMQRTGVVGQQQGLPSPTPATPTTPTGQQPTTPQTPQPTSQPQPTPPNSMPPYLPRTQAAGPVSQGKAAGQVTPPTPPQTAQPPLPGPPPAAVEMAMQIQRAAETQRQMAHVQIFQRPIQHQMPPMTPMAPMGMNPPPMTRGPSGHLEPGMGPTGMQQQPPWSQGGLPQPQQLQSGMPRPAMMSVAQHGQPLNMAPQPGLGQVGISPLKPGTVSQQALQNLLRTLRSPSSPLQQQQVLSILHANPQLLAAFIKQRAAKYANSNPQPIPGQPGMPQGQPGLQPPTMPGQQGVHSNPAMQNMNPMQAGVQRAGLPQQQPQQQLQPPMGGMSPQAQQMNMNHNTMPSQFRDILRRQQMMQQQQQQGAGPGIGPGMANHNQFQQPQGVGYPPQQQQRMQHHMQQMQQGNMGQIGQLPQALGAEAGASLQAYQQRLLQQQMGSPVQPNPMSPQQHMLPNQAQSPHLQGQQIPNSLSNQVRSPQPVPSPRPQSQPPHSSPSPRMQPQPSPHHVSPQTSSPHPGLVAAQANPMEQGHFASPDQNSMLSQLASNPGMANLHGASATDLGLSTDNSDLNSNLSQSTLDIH
Procedure, shortened: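 LNCaP or 22RV1 cells treated with compounds for indicated hours, DMSO as negative control. RIPA lysates resolved by SDS-PAGE and immunoblotted for P300 or CBP, tubulin or vinculin as loading control; chemiluminescent bands quantitated.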

LNCaP cells = experiment: LNCaP cell viability assay (CellTiter-Glo); type: cell-based; conditions: Homo sapiens, 72 h; LNCaP prostate cancer cell viability inhibition, 3 days, CellTiter-Glo (Table 3)
Procedure, shortened: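 LNCaP cells, 5000/well, exposed to compounds in 12-point 3-fold serial dilution (top 10 μM) for 3 days. Viability by CellTiter-Glo luminescence, normalized to untreated cells; IC50 by least-squares nonlinear regression.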

[1] = percentage of inhibition of p300 at 10 nM (Table 3)

Row | IC50 (LNCaP cells) | inhibition at 0.01 µM (P300; [1]) | SMILES | inhibition at 0.01 µM (P300)
1 | 156 nM | 50 to 80% | CC(=O)N1CCc2c(c(N3CCCc4cc(-c5cnn(C)c5)c(C(F)F)cc43)nn2C2CCN(C(=O)CN3CCOC(CNc4cccc5c4C(=O)N(C4CCC(=O)NC4=O)C5=O)C3)CC2)C1 (stereo not drawn) [P-141, 4-(((4-(2-(4-(5-Acetyl-3-(7-(difluoromethyl)-6-(1-methyl-1H-pyrazol-4-yl)-3,4-dihydroquinolin-1(2H)-yl)-4,5,6,7-tetrahydro-1H-pyrazolo[4,3-c]pyridin-1-yl)piperidin-1-yl)-2-oxoethyl)morpholin-2-yl)methyl)amino)-2-(2,6-dioxopiperidin-3-yl)isoindoline-1,3-dione] | –
2 | 0.3 nM | > 80% | CC(=O)N1CCc2c(c(N3CCCc4cc(-c5cnn(C)c5)c(C(F)F)cc43)nn2C2CCN(CCN3CCOC(CNc4cccc5c4C(=O)N(C4CCC(=O)NC4=O)C5=O)C3)CC2)C1 (stereo not drawn) [P-142] | –
3 | 2 nM | > 80% | CC(=O)N1CCc2c(c(N3CCCc4cc(-c5cnn(C)c5)c(C(F)F)cc43)nn2C2CCN(C(=O)CCCC3CN(c4cccc5c4C(=O)N(C4CCC(=O)NC4=O)C5=O)C3)CC2)C1 (stereo not drawn) [P-146, 4-(3-(4-(4-(5-acetyl-3-(7-(difluoromethyl)-6-(1-methyl-1H-pyrazol-4-yl)-3,4-dihydroquinolin-1(2H)-yl)-4,5,6,7-tetrahydro-1H-pyrazolo[4,3-c]pyridin-1-yl)piperidin-1-yl)-4-oxobutyl)azetidin-1-yl)-2-(2,6-dioxopiperidin-3-yl)isoindoline-1,3-dione] | –
4 | 1.4 nM | > 80% | CC(=O)N1CCc2c(c(N3CCCc4cc(-c5cnn(C)c5)c(C(F)F)cc43)nn2C2CCN(C(=O)CN3CCC(CCCc4cccc5c4C(=O)N(C4CCC(=O)NC4=O)C5=O)CC3)CC2)C1 (stereo not drawn) [P-147, 4-(3-(1-(2-(4-(5-acetyl-3-(7-(difluoromethyl)-6-(1-methyl-1H-pyrazol-4-yl)-3,4-dihydroquinolin-1(2H)-yl)-4,5,6,7-tetrahydro-1H-pyrazolo[4,3-c]pyridin-1-yl)piperidin-1-yl)-2-oxoethyl)piperidin-4-yl)propyl)-2-(2,6-dioxopiperidin-3-yl)isoindoline-1,3-dione] | –
5 | 73.3 nM | > 80% | CC(=O)N1CCc2c(c(N3CCCc4cc(-c5cnn(C)c5)c(C(F)F)cc43)nn2C2CCN(C(=O)CCN3CCC(CCc4cccc5c4C(=O)N(C4CCC(=O)NC4=O)C5=O)CC3)CC2)C1 (stereo not drawn) [P-148, 4-(2-(1-(3-(4-(5-acetyl-3-(7-(difluoromethyl)-6-(1-methyl-1H-pyrazol-4-yl)-3,4-dihydroquinolin-1(2H)-yl)-4,5,6,7-tetrahydro-1H-pyrazolo[4,3-c]pyridin-1-yl)piperidin-1-yl)-3-oxopropyl)piperidin-4-yl)ethyl)-2-(2,6-dioxopiperidin-3-yl)isoindoline-1,3-dione] | –
6 | 11.4 nM | > 80% | CC(=O)N1CCc2c(c(N3CCCc4cc(-c5cnn(C)c5)c(C(F)F)cc43)nn2C2CCN(CC3CCN(CCCc4cccc5c4C(=O)N(C4CCC(=O)NC4=O)C5=O)CC3)CC2)C1 (stereo not drawn) [P-149, 4-(3-(4-((4-(5-acetyl-3-(7-(difluoromethyl)-6-(1-methyl-1H-pyrazol-4-yl)-3,4-dihydroquinolin-1(2H)-yl)-4,5,6,7-tetrahydro-1H-pyrazolo[4,3-c]pyridin-1-yl)piperidin-1-yl)methyl)piperidin-1-yl)propyl)-2-(2,6-dioxopiperidin-3-yl)isoindoline-1,3-dione] | –
7 | 191 nM | > 80% | CC(=O)N1CCc2c(c(N3CCCc4cc(-c5cnn(C)c5)c(C(F)F)cc43)nn2C2CCN(CC3CCN(CC#Cc4cccc5c4C(=O)N(C4CCC(=O)NC4=O)C5=O)CC3)CC2)C1 (stereo not drawn) [P-150, 4-(3-(4-((4-(5-Acetyl-3-(7-(difluoromethyl)-6-(1-methyl-1H-pyrazol-4-yl)-3,4-dihydroquinolin-1(2H)-yl)-4,5,6,7-tetrahydro-1H-pyrazolo[4,3-c]pyridin-1-yl)piperidin-1-yl)methyl)piperidin-1-yl)prop-1-yn-1-yl)-2-(2,6-dioxopiperidin-3-yl)isoindoline-1,3-dione] | –
8 | 7.5 nM | > 80% | CC(=O)N1CCc2c(c(N3CCCc4cc(-c5cnn(C)c5)c(C(F)F)cc43)nn2C2CCN(C(=O)CCCCCNc3cccc4nnn(C5CCC(=O)NC5=O)c(=O)c34)CC2)C1 (stereo not drawn) [P-151, 3-(5-((6-(4-(5-acetyl-3-(7-(difluoromethyl)-6-(1-methyl-1H-pyrazol-4-yl)-3,4-dihydroquinolin-1(2H)-yl)-4,5,6,7-tetrahydro-1H-pyrazolo[4,3-c]pyridin-1-yl)piperidin-1-yl)-6-oxohexyl)amino)-4-oxobenzo[d][1,2,3]triazin-3(4H)-yl)piperidine-2,6-dione] | –
9 | 169 nM | < 20% | CC(=O)N1CCc2c(c(N3CCCc4cc(-c5cnn(C)c5)c(C(F)F)cc43)nn2C2CCN(C(=O)CCCCCCNc3cccc4nc(C)n(C5CCC(=O)NC5=O)c(=O)c34)CC2)C1 (stereo not drawn) [P-152, 3-(5-((7-(4-(5-Acetyl-3-(7-(difluoromethyl)-6-(1-methyl-1H-pyrazol-4-yl)-3,4-dihydroquinolin-1(2H)-yl)-4,5,6,7-tetrahydro-1H-pyrazolo[4,3-c]pyridin-1-yl)piperidin-1-yl)-7-oxoheptyl)amino)-2-methyl-4-oxoquinazolin-3(4H)-yl)piperidine-2,6-dione] | –
10 | 3.7 nM | > 80% | CC(=O)N1CCc2c(c(N3CCCc4cc(-c5cnn(C)c5)c(C(F)F)cc43)nn2C2CCN(C(=O)CCCCCCNc3cccc4nnn(C5CCC(=O)NC5=O)c(=O)c34)CC2)C1 (stereo not drawn) [P-153, 3-(5-((7-(4-(5-acetyl-3-(7-(difluoromethyl)-6-(1-methyl-1H-pyrazol-4-yl)-3,4-dihydroquinolin-1(2H)-yl)-4,5,6,7-tetrahydro-1H-pyrazolo[4,3-c]pyridin-1-yl)piperidin-1-yl)-7-oxoheptyl)amino)-4-oxobenzo[d] [1,2,3]triazin-3 (4H)-yl)piperidine-2,6-dione] | –
11 | > 1000 nM | 20 to 50% | CC(=O)N1CCc2c(c(N3CCCc4cc(-c5cnn(C)c5)c(C(F)F)cc43)nn2C2CCN(C(=O)CCCCNc3cccc4nc(C)n(C5CCC(=O)NC5=O)c(=O)c34)CC2)C1 (stereo not drawn) [P-154, 3-(5-((5-(4-(5-Acetyl-3-(7-(difluoromethyl)-6-(1-methyl-1H-pyrazol-4-yl)-3,4-dihydroquinolin-1(2H)-yl)-4,5,6,7-tetrahydro-1H-pyrazolo[4,3-c]pyridin-1-yl)piperidin-1-yl)-5-oxopentyl)amino)-2-methyl-4-oxoquinazolin-3(4H)-yl)piperidine-2,6-dione] | –
12 | 22.3 nM | 50 to 80% | CC(=O)N1CCc2c(c(N3CCCc4cc(-c5cnn(C)c5)c(C(F)F)cc43)nn2C2CCN(C(=O)CCCCNc3cccc4nnn(C5CCC(=O)NC5=O)c(=O)c34)CC2)C1 (stereo not drawn) [P-155, 3-(5-((5-(4-(5-acetyl-3-(7-(difluoromethyl)-6-(1-methyl-1H-pyrazol-4-yl)-3,4-dihydroquinolin-1(2H)-yl)-4,5,6,7-tetrahydro-1H-pyrazolo[4,3-c]pyridin-1-yl)piperidin-1-yl)-5-oxopentyl)amino)-4-oxobenzo[d][1,2,3]triazin-3(4H)-yl)piperidine-2,6-dione] | –
13 | > 500 nM | < 20% | CC(=O)N1CCc2c(c(N3CCCc4cc(-c5cnn(C)c5)c(C(F)F)cc43)nn2C2CCN(C(=O)CCC3CN(Cc4cccc5c4C(=O)N(C4CCC(=O)NC4=O)C5=O)C3)CC2)C1 (stereo not drawn) [P-156, 4-((3-(3-(4-(5-Acetyl-3-(7-(difluoromethyl)-6-(1-methyl-1H-pyrazol-4-yl)-3,4-dihydroquinolin-1(2H)-yl)-4,5,6,7-tetrahydro-1H-pyrazolo[4,3-c]pyridin-1-yl)piperidin-1-yl)-3-oxopropyl)azetidin-1-yl)methyl)-2-(2,6-dioxopiperidin-3-yl)isoindoline-1,3-dione] | –

Row | SMILES | IC50 (LNCaP cells) | inhibition at 0.01 µM (P300; [1]) | inhibition at 0.01 µM (P300)
14 | CC(=O)N1CCc2c(c(N3CCCc4cc(-c5cnn(C)c5)c(C(F)F)cc43)nn2C2CCN(C(=O)CCCCCCCn3c(=O)n(C4CCC(=O)NC4=O)c4ccccc43)CC2)C1 (stereo not drawn) [P-135, 3-(3-(8-(4-(5-acetyl-3-(7-(difluoromethyl)-6-(1-methyl-1H-pyrazol-4-yl)-3,4-dihydroquinolin-1(2H)-yl)-4,5,6,7-tetrahydro-1H-pyrazolo[4,3-c]pyridin-1-yl)piperidin-1-yl)-8-oxooctyl)-2-oxo-2,3-dihydro-1H-benzo[d]imidazol-1-yl)piperidine-2,6-dione] | 0.7 nM | – | > 80%
15 | CC(=O)N1CCc2c(c(N3CCCc4cc(-c5cnn(C)c5)c(C(F)F)cc43)nn2C2CCN(CCN3CCC(CNc4cccc5c4C(=O)N(C4CCC(=O)NC4=O)C5=O)CC3)CC2)C1 (stereo not drawn) [P-143, 4-(((1-(2-(4-(5-acetyl-3-(7-(difluoromethyl)-6-(1-methyl-1H-pyrazol-4-yl)-3,4-dihydroquinolin-1(2H)-yl)-4,5,6,7-tetrahydro-1H-pyrazolo[4,3-c]pyridin-1-yl)piperidin-1-yl)ethyl)piperidin-4-yl)methyl)amino)-2-(2,6-dioxopiperidin-3-yl)isoindoline-1,3-dione] | 1.5 nM | – | > 80%
